Reference: ChEMBL document CHEMBL2375290, “Nonclassical antifolates, part 3: synthesis, biological evaluation and molecular modeling study of some new 2-heteroarylthio-quinazolin-4-ones” (Eur J Med Chem, 2013)

Experiments:
[1] = test system: A498; assay: Cytotoxicity against human A498 cells at 10 uM after 48 hrs by coulter counter analysis; format: functional; details: A498, 48 h, read-out: GI
[2] = test system: HL-60(TB); assay: Cytotoxicity against human HL-60(TB) cells at 10 uM after 48 hrs by coulter counter analysis; format: functional; details: HL-60, 48 h, read-out: GI
[3] = test system: A549; assay: Cytotoxicity against human A549/ATCC cells at 10 uM after 48 hrs by coulter counter analysis; format: functional; details: A549, 48 h, read-out: GI
[4] = test system: SN12C; assay: Cytotoxicity against human SN12C cells at 10 uM after 48 hrs by coulter counter analysis; format: functional; details: read-out: GI
[5] = test system: CCRF-CEM; assay: Cytotoxicity against human CCRF-CEM cells at 10 uM after 48 hrs by coulter counter analysis; format: functional; details: read-out: GI
[6] = test system: UACC-62; assay: Cytotoxicity against human UACC62 cells at 10 uM after 48 hrs by coulter counter analysis; format: functional; details: UACC-62, 48 h, read-out: GI
[7] = test system: OVCAR-4; assay: Cytotoxicity against human OVCAR4 cells at 10 uM after 48 hrs by coulter counter analysis; format: functional; details: OVCAR-4, 48 h, read-out: GI
[8] = test system: SF-295; assay: Cytotoxicity against human SF295 cells at 10 uM after 48 hrs by coulter counter analysis; format: functional; details: SF-295, 48 h, read-out: GI
[9] = test system: SR; assay: Cytotoxicity against human SR cells at 10 uM after 48 hrs by coulter counter analysis; format: functional; details: read-out: GI
[10] = Cytotoxicity against human EKVX cells at 10 uM after 48 hrs by coulter counter analysis; format: functional; details: read-out: GI
[11] = test system: NCI-H226; assay: Cytotoxicity against human NCI-H226 cells at 10 uM after 48 hrs by coulter counter analysis; format: functional; details: NCI-H226, 48 h, read-out: GI
[12] = test system: MOLT-4; assay: Cytotoxicity against human MOLT4 cells at 10 uM after 48 hrs by coulter counter analysis; format: functional; details: MOLT-4, 48 h, read-out: GI
[13] = test system: UO-31; assay: Cytotoxicity against human UO31 cells at 10 uM after 48 hrs by coulter counter analysis; format: functional; details: UO-31, 48 h, read-out: GI
[14] = test system: RXF 393; assay: Cytotoxicity against human RXF393 cells at 10 uM after 48 hrs by coulter counter analysis; format: functional; details: RXF 393, 48 h, read-out: GI
[15] = test system: MDA-MB-231; assay: Cytotoxicity against human MDA-MB-231 cells at 10 uM after 48 hrs by coulter counter analysis; format: functional; details: MDA-MB-231, 48 h, read-out: GI
[16] = Cytotoxicity against human NCI-ADR-RES cells at 10 uM after 48 hrs by coulter counter analysis; format: functional; details: read-out: GI
[17] = test system: LOX IMVI; assay: Cytotoxicity against human LOXIMVI cells at 10 uM after 48 hrs by coulter counter analysis; format: functional; details: read-out: GI
[18] = test system: IGROV-1; assay: Cytotoxicity against human IGROV1 cells at 10 uM after 48 hrs by coulter counter analysis; format: functional; details: IGROV-1, 48 h, read-out: GI
[19] = test system: NCI-H522; assay: Cytotoxicity against human NCI-H522 cells at 10 uM after 48 hrs by coulter counter analysis; format: functional; details: NCI-H522, 48 h, read-out: GI
[20] = test system: MCF7; assay: Cytotoxicity against human MCF7 cells at 10 uM after 48 hrs by coulter counter analysis; format: functional; details: MCF7, 48 h, read-out: GI
[21] = test system: T47D; assay: Cytotoxicity against human T47D cells at 10 uM after 48 hrs by coulter counter analysis; format: functional; details: read-out: GI
[22] = target: T1, Dihydrofolate reductase (Bos taurus, UniProt P00376); assay: Inhibition of bovine DHFR after 2 mins by spectrophotometry
T1 sequence (P00376 whole entry): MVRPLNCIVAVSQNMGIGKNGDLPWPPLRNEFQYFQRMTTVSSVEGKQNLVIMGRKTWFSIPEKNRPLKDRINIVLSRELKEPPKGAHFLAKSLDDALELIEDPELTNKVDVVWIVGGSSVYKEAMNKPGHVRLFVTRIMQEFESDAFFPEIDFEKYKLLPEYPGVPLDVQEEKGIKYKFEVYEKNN

[23] = test system: Malme-3M; assay: Cytotoxicity against human MALME-3M cells at 10 uM after 48 hrs by coulter counter analysis; format: functional; details: read-out: GI
[24] = test system: Escherichia coli; assay: Antimicrobial activity against Escherichia coli at 200 ug after 24 hrs by agar disc diffusion method; format: functional; details: read-out: DIZ
[25] = test system: SNB-75; assay: Cytotoxicity against human SNB75 cells at 10 uM after 48 hrs by coulter counter analysis; format: functional; details: SNB-75, 48 h, read-out: GI
[26] = test system: Micrococcus luteus; assay: Antimicrobial activity against Micrococcus luteus at 200 ug after 24 hrs by agar disc diffusion method; format: functional; details: read-out: DIZ
[27] = test system: Hs-578T; assay: Cytotoxicity against human Hs578T cells at 10 uM after 48 hrs by coulter counter analysis; format: functional; details: read-out: GI
[28] = test system: Staphylococcus aureus; assay: Antimicrobial activity against Staphylococcus aureus at 200 ug after 24 hrs by agar disc diffusion method; format: functional; details: read-out: DIZ
[29] = test system: Pseudomonas aeruginosa; assay: Antimicrobial activity against Pseudomonas aeruginosa at 200 ug after 24 hrs by agar disc diffusion method; format: functional; details: read-out: DIZ
[30] = test system: SK-MEL-5; assay: Cytotoxicity against human SK-MEL-5 cells at 10 uM after 48 hrs by coulter counter analysis; format: functional; details: SK-MEL-5, 48 h, read-out: GI
[31] = test system: RPMI-8226; assay: Cytotoxicity against human RPMI8226 cells at 10 uM after 48 hrs by coulter counter analysis; format: functional; details: RPMI-8226, 48 h, read-out: GI
[32] = test system: MDA-MB-435; assay: Cytotoxicity against human MDA-MB-435 cells at 10 uM after 48 hrs by coulter counter analysis; format: functional; details: MDA-MB-435, 48 h, read-out: GI
[33] = test system: CAKI-1; assay: Cytotoxicity against human Caki1 cells at 10 uM after 48 hrs by coulter counter analysis; format: functional; details: CAKI-1, 48 h, read-out: GI
[34] = test system: PC-3; assay: Cytotoxicity against human PC3 cells at 10 uM after 48 hrs by coulter counter analysis; format: functional; details: PC-3, 48 h, read-out: GI
[35] = test system: Bacillus subtilis; assay: Antimicrobial activity against Bacillus subtilis at 200 ug after 24 hrs by agar disc diffusion method; format: functional; details: read-out: DIZ
[36] = test system: SNB-19; assay: Cytotoxicity against human SNB19 cells at 10 uM after 48 hrs by coulter counter analysis; format: functional; details: SNB-19, 48 h, read-out: GI
[37] = test system: NCI-H23; assay: Cytotoxicity against human NCI-H23 cells at 10 uM after 48 hrs by coulter counter analysis; format: functional; details: NCI-H23, 48 h, read-out: GI

Compound	inhibition of growth at 10 µM [1] [%]	inhibition of growth at 10 µM [2] [%]	inhibition of growth at 10 µM [3] [%]	inhibition of growth at 10 µM [4] [%]	inhibition of growth at 10 µM [5] [%]	inhibition of growth at 10 µM [6] [%]	inhibition of growth at 10 µM [7] [%]	inhibition of growth at 10 µM [8] [%]	inhibition of growth at 10 µM [9] [%]	inhibition of growth at 10 µM [10] [%]	inhibition of growth at 10 µM [11] [%]	inhibition of growth at 10 µM [12] [%]	inhibition of growth at 10 µM [13] [%]	inhibition of growth at 10 µM [14] [%]	inhibition of growth at 10 µM [15] [%]	inhibition of growth at 10 µM [16] [%]	inhibition of growth at 10 µM [17] [%]	inhibition of growth at 10 µM [18] [%]	inhibition of growth at 10 µM [19] [%]	inhibition of growth at 10 µM [20] [%]	further results
Cc1ccc2nc(Sc3cnc(N)s3)n(Cc3ccccc3)c(=O)c2c1	< 10	< 10	< 10	< 10	< 10	12.2	< 10	17.3	< 10	25.9	19.9	< 10	29.4	< 10	15.2	< 10	10.4	21.8	< 10	10.8	inhibition of growth at 10 µM [21]: < 10%; IC50 [22]: 1 µM; inhibition of growth at 10 µM [23]: 12.3%; zone of inhibition at 200 µg/disc [24]: 8 mm; inhibition of growth at 10 µM [25]: 20.4%; zone of inhibition at 200 µg/disc [26]: 8 mm; inhibition of growth at 10 µM [27]: < 10%; zone of inhibition at 200 µg/disc [28]: 8 mm; zone of inhibition at 200 µg/disc [29]: 8 mm; inhibition of growth at 10 µM [30]: < 10%; inhibition of growth at 10 µM [31]: 16.8%; inhibition of growth at 10 µM [32]: < 10%; inhibition of growth at 10 µM [33]: 30.3%; inhibition of growth at 10 µM [34]: 22.6%; zone of inhibition at 200 µg/disc [35]: 8 mm; inhibition of growth at 10 µM [36]: < 10%; inhibition of growth at 10 µM [37]: < 10%
COc1cc2nc(Sc3cnc(N)s3)n(Cc3ccccc3)c(=O)c2cc1OC	< 10	< 10	< 10	< 10	22.8	< 10	< 10	< 10	< 10	16.1	10.4	< 10	17.4	< 10	19.1	< 10	10.8	< 10	19.8	< 10	inhibition of growth at 10 µM [21]: < 10%; IC50 [22]: 3 µM; inhibition of growth at 10 µM [23]: < 10%; zone of inhibition at 200 µg/disc [24]: 16 mm; inhibition of growth at 10 µM [25]: 13.3%; zone of inhibition at 200 µg/disc [26]: 8 mm; inhibition of growth at 10 µM [27]: < 10%; zone of inhibition at 200 µg/disc [28]: 17 mm; zone of inhibition at 200 µg/disc [29]: 8 mm; inhibition of growth at 10 µM [30]: 12.9%; inhibition of growth at 10 µM [31]: 15.9%; inhibition of growth at 10 µM [32]: < 10%; inhibition of growth at 10 µM [33]: 25.4%; inhibition of growth at 10 µM [34]: 22.4%; zone of inhibition at 200 µg/disc [35]: 18 mm; inhibition of growth at 10 µM [36]: < 10%; inhibition of growth at 10 µM [37]: < 10%
O=C(O)c1cccnc1Sc1nc2ccc(Cl)cc2c(=O)n1Cc1ccccc1	< 10	< 10	< 10	< 10	17.8	16.7	20.6	15.7	32.8	25.4	18.4	16.7	20.3	< 10	24.7	< 10	13.6	14.7	13.1	< 10	inhibition of growth at 10 µM [21]: 14.1%; IC50 [22]: 10 µM; inhibition of growth at 10 µM [23]: < 10%; zone of inhibition at 200 µg/disc [24]: 8 mm; inhibition of growth at 10 µM [25]: 18.4%; zone of inhibition at 200 µg/disc [26]: 8 mm; inhibition of growth at 10 µM [27]: < 10%; zone of inhibition at 200 µg/disc [28]: 14 mm; zone of inhibition at 200 µg/disc [29]: 8 mm; inhibition of growth at 10 µM [30]: < 10%; inhibition of growth at 10 µM [31]: 16.3%; inhibition of growth at 10 µM [32]: < 10%; inhibition of growth at 10 µM [33]: 30.3%; inhibition of growth at 10 µM [34]: 25.2%; zone of inhibition at 200 µg/disc [35]: 18 mm; inhibition of growth at 10 µM [36]: < 10%; inhibition of growth at 10 µM [37]: < 10%
Cc1ccc2nc(Sc3ncccc3C(=O)O)n(Cc3ccccc3)c(=O)c2c1	11.4	< 10	< 10	11.2	16.5	30.4	16.2	14.2	14.4	26.6	21.2	15.3	20.6	21.5	30.5	12.7	13.8	16.3	24.4	16.6	inhibition of growth at 10 µM [21]: < 10%; IC50 [22]: 10 µM; inhibition of growth at 10 µM [23]: < 10%; zone of inhibition at 200 µg/disc [24]: 8 mm; inhibition of growth at 10 µM [25]: 30%; zone of inhibition at 200 µg/disc [26]: 12 mm; inhibition of growth at 10 µM [27]: 12.5%; zone of inhibition at 200 µg/disc [28]: 15 mm; zone of inhibition at 200 µg/disc [29]: 8 mm; inhibition of growth at 10 µM [30]: 14.4%; inhibition of growth at 10 µM [31]: 25.8%; inhibition of growth at 10 µM [32]: 21.8%; inhibition of growth at 10 µM [33]: 41.2%; inhibition of growth at 10 µM [34]: 32.8%; zone of inhibition at 200 µg/disc [35]: 16 mm; inhibition of growth at 10 µM [36]: 14.2%; inhibition of growth at 10 µM [37]: < 10%
